Test results taken from the supplement of paper PMC10307832.

How the values were obtained:
Assay in all cases: relative viability (nuclei count vs DMSO), 5 days (fraction); higher = more cells survive
201T = test system: 201T
Method in brief: (§1)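 Nuclei were stained with Hoechst during a one-step fixation (final 0.05% Triton X-100, 1% formaldehyde, 1 ug/ml Hoechst) carried out 5 days after dosing, then counted on 4× images. The cells, lung cancer lines in 1536-well plates, had been dosed by pin tool the day after seeding with one drug alone or a fixed anchor-drug dose plus five library-drug doses (not always all listed) in √10 steps. Relative viability is the nuclei count in treated wells divided by that in vehicle wells, and each value is the median of duplicate plates.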

A-427 = test system: A-427
Method in brief: as §1

BEN = test system: BEN
Method in brief: as §1

COR-L 105 = test system: COR-L 105
Method in brief: as §1

COR-L23 = test system: COR-L23
Method in brief: as §1

EKVX = test system: EKVX
Method in brief: as §1

HARA = test system: HARA
Method in brief: as §1

HCC-15 = test system: HCC-15
Method in brief: as §1

HCC-44 = test system: HCC-44
Method in brief: as §1

HCC-827 = test system: HCC-827
Method in brief: as §1

LK-2 = test system: LK-2
Method in brief: as §1

NCI-H1437 = test system: NCI-H1437
Method in brief: as §1

NCI-H1666 = test system: NCI-H1666
Method in brief: as §1

NCI-H1975 = test system: NCI-H1975
Method in brief: as §1

NCI-H23 = test system: NCI-H23
Method in brief: as §1

NCI-H358 = test system: NCI-H358
Method in brief: as §1

NCI-H441 = test system: NCI-H441
Method in brief: as §1

NCI-H596 = test system: NCI-H596
Method in brief: as §1

NCI-H650 = test system: NCI-H650
Method in brief: as §1

NCI-H838 = test system: NCI-H838
Method in brief: as §1

SK-MES-1 = test system: SK-MES-1
Method in brief: as §1

SW 900 = test system: SW 900
Method in brief: as §1

Compound `CC1(C)CCC(c2ccc(Cl)cc2)=C(CN2CCN(c3ccc(C(=O)NS(=O)(=O)c4ccc(N[C@H](CCN5CCOCC5)CSc5ccccc5)c(S(=O)(=O)C(F)(F)F)c4)cc3)CC2)C1` [Navitoclax] + Cc1cc(Nc2cc(N3CCN(C)CC3)nc(Sc3ccc(NC(=O)C4CC4)cc3)n2)n[nH]1 [Tozasertib] (partner 0.1 µM) has a relative viability (201T; first compound 0.005 µM) of 0.975, a relative viability (201T; first compound 0.01581 µM) of 1.04 and a relative viability (201T; first compound 0.05 µM) of 0.778. It also gave a relative viability (201T; first compound 0.1581 µM) of 0.931, a relative viability (201T; first compound 0.5 µM) of 1.01 and a relative viability (A-427; first compound 0.005 µM) of 0.199. The relative viability (A-427; first compound 0.01581 µM) was 0.192, the relative viability (A-427; first compound 0.05 µM) was 0.161 and the relative viability (A-427; first compound 0.1581 µM) was 0.197. It also gave a relative viability (A-427; first compound 0.5 µM) of 0.213, a relative viability (BEN; first compound 0.005 µM) of 0.536 and a relative viability (BEN; first compound 0.01581 µM) of 0.568. It also gave a relative viability (BEN; first compound 0.05 µM) of 0.522, a relative viability (BEN; first compound 0.1581 µM) of 0.451 and a relative viability (BEN; first compound 0.5 µM) of 0.421. For the same compound, the relative viability (COR-L 105; first compound 0.005 µM) was 0.353, the relative viability (COR-L 105; first compound 0.01581 µM) was 0.338 and the relative viability (COR-L 105; first compound 0.05 µM) was 0.369. The relative viability (COR-L 105; first compound 0.1581 µM) was 0.348, the relative viability (COR-L 105; first compound 0.5 µM) was 0.29 and the relative viability (COR-L23; first compound 0.005 µM) was 0.236. It also gave a relative viability (COR-L23; first compound 0.01581 µM) of 0.197, a relative viability (COR-L23; first compound 0.05 µM) of 0.172 and a relative viability (COR-L23; first compound 0.1581 µM) of 0.198. It also gave a relative viability (COR-L23; first compound 0.5 µM) of 0.228, a relative viability (EKVX; first compound 0.005 µM) of 0.411 and a relative viability (EKVX; first compound 0.01581 µM) of 0.388. It also gave a relative viability (EKVX; first compound 0.05 µM) of 0.323, a relative viability (EKVX; first compound 0.1581 µM) of 0.44 and a relative viability (EKVX; first compound 0.5 µM) of 0.294. It also gave a relative viability (HARA; first compound 0.005 µM) of 0.0833, a relative viability (HARA; first compound 0.01581 µM) of 0.113 and a relative viability (HARA; first compound 0.1581 µM) of 0.0955. It also gave a relative viability (HARA; first compound 0.5 µM) of 0.0891, a relative viability (HCC-15; first compound 0.005 µM) of 0.428 and a relative viability (HCC-15; first compound 0.01581 µM) of 0.524. For the same compound, the relative viability (HCC-15; first compound 0.05 µM) was 0.449, the relative viability (HCC-15; first compound 0.1581 µM) was 0.481 and the relative viability (HCC-15; first compound 0.5 µM) was 0.467. It also gave a relative viability (HCC-44; first compound 0.05 µM) of 1.1, a relative viability (HCC-44; first compound 0.5 µM) of 0.613 and a relative viability (HCC-827; first compound 0.005 µM) of 0.437. The relative viability (HCC-827; first compound 0.01581 µM) was 0.453, the relative viability (HCC-827; first compound 0.05 µM) was 0.384 and the relative viability (HCC-827; first compound 0.1581 µM) was 0.39. It also gave a relative viability (HCC-827; first compound 0.5 µM) of 0.454, a relative viability (LK-2; first compound 0.005 µM) of 0.189 and a relative viability (LK-2; first compound 0.01581 µM) of 0.187. The relative viability (LK-2; first compound 0.05 µM) was 0.198, the relative viability (LK-2; first compound 0.1581 µM) was 0.159 and the relative viability (LK-2; first compound 0.5 µM) was 0.2. For the same compound, the relative viability (NCI-H1437; first compound 0.005 µM) was 0.408, the relative viability (NCI-H1437; first compound 0.01581 µM) was 0.407 and the relative viability (NCI-H1437; first compound 0.05 µM) was 0.357. It also gave a relative viability (NCI-H1437; first compound 0.1581 µM) of 0.46, a relative viability (NCI-H1437; first compound 0.5 µM) of 0.386 and a relative viability (NCI-H1666; first compound 0.005 µM) of 0.626. The relative viability (NCI-H1666; first compound 0.01581 µM) was 0.638, the relative viability (NCI-H1666; first compound 0.05 µM) was 0.61 and the relative viability (NCI-H1666; first compound 0.1581 µM) was 0.587. It also gave a relative viability (NCI-H1666; first compound 0.5 µM) of 0.666, a relative viability (NCI-H1975; first compound 0.005 µM) of 0.791 and a relative viability (NCI-H1975; first compound 0.01581 µM) of 0.917. It also gave a relative viability (NCI-H1975; first compound 0.05 µM) of 0.714, a relative viability (NCI-H1975; first compound 0.1581 µM) of 0.734 and a relative viability (NCI-H1975; first compound 0.5 µM) of 0.815. For the same compound, the relative viability (NCI-H23; first compound 0.005 µM) was 0.398, the relative viability (NCI-H23; first compound 0.01581 µM) was 0.353 and the relative viability (NCI-H23; first compound 0.05 µM) was 0.336. For the same compound, the relative viability (NCI-H23; first compound 0.1581 µM) was 0.325, the relative viability (NCI-H23; first compound 0.5 µM) was 0.352 and the relative viability (NCI-H358; first compound 0.005 µM) was 0.1. For the same compound, the relative viability (NCI-H358; first compound 0.01581 µM) was 0.0998, the relative viability (NCI-H358; first compound 0.05 µM) was 0.105 and the relative viability (NCI-H358; first compound 0.1581 µM) was 0.122. For the same compound, the relative viability (NCI-H358; first compound 0.5 µM) was 0.109, the relative viability (NCI-H441; first compound 0.005 µM) was 0.648 and the relative viability (NCI-H441; first compound 0.01581 µM) was 0.846. The relative viability (NCI-H441; first compound 0.05 µM) was 0.719, the relative viability (NCI-H441; first compound 0.1581 µM) was 0.524 and the relative viability (NCI-H441; first compound 0.5 µM) was 0.676. The relative viability (NCI-H596; first compound 0.005 µM) was 0.776, the relative viability (NCI-H596; first compound 0.01581 µM) was 0.853 and the relative viability (NCI-H596; first compound 0.1581 µM) was 0.885. For the same compound, the relative viability (NCI-H596; first compound 0.5 µM) was 1.03, the relative viability (NCI-H650; first compound 0.005 µM) was 0.711 and the relative viability (NCI-H650; first compound 0.01581 µM) was 0.818. For the same compound, the relative viability (NCI-H650; first compound 0.05 µM) was 0.781, the relative viability (NCI-H650; first compound 0.1581 µM) was 0.765 and the relative viability (NCI-H650; first compound 0.5 µM) was 0.718. For the same compound, the relative viability (NCI-H838; first compound 0.005 µM) was 0.295, the relative viability (NCI-H838; first compound 0.01581 µM) was 0.328 and the relative viability (NCI-H838; first compound 0.05 µM) was 0.266. It also gave a relative viability (NCI-H838; first compound 0.1581 µM) of 0.266, a relative viability (NCI-H838; first compound 0.5 µM) of 0.292 and a relative viability (SK-MES-1; first compound 0.005 µM) of 0.853. For the same compound, the relative viability (SK-MES-1; first compound 0.01581 µM) was 0.976, the relative viability (SK-MES-1; first compound 0.05 µM) was 0.953 and the relative viability (SK-MES-1; first compound 0.1581 µM) was 0.848. For the same compound, the relative viability (SK-MES-1; first compound 0.5 µM) was 0.952, the relative viability (SW 900; first compound 0.005 µM) was 0.456 and the relative viability (SW 900; first compound 0.01581 µM) was 0.46. For the same compound, the relative viability (SW 900; first compound 0.05 µM) was 0.385, the relative viability (SW 900; first compound 0.1581 µM) was 0.59 and the relative viability (SW 900; first compound 0.5 µM) was 0.501.
